Test results: patent publication US9439903B2, “Process for the preparation of amorphous imatinib mesylate” (CADILA HEALTHCARE LIMITED, priority 2012, dated 2016)
Structures can show the parent of a compound that is named as a salt.

Columns and labels:
Type in all cases: physicochemical
[1] = Stability of amorphous imatinib mesylate, real time storage 25° C./60% RH; conditions: 25° C. ± 2° C./60% ± 5% RH (Real time)
Method: (§1) The amorphous imatinib mesylate having less than 2.0% water, in particular, having less than 1.7% water, more particularly, water content is in the range of 0.7% to 1.7% as manufactured by the process of the present invention was subjected to stability for at least 6 months at 25° C./60% RH or at about 40° C./75% RH. The following Table-1 and Tabel-2 discloses the stability conditions and results.

[2] = Stability of amorphous imatinib mesylate, accelerated storage 40° C./75% RH; conditions: 40° C. ± 2° C./75% ± 5% RH (Accelerated)
Method: as §1

[3] = Hygroscopicity as per Ph. Eur. general chapter 5.11
Description: In one general aspect, the amorphous imatinib mesylate was subjected to study the hygroscopicity as per the Ph. Eur. general chapter 5.11.

- Description ([1]; 1 Month): Pale yellow
- Related substance (%) by HPLC: Impurity-AMPPP ([1]; 1 Month): BQL
- Related substance (%) by HPLC: Impurity-MPMBA ([1]; 1 Month): BQL
- Related substance (%) by HPLC: Impurity-Methyl Ester analouge ([1]; 1 Month): BQL
- Related substance (%) by HPLC: Impurity-NMPPP ([1]; 1 Month): BQL
- Related substance (%) by HPLC: Single largest unknown Imp ([1]; 1 Month): 0.03%
- Related substance (%) by HPLC: Total Impurities ([1]; 1 Month): 0.04%
- Water (%) ([1]; 1 Month): 0.72%
- X-Ray Diffraction ([1]; 1 Month): Amorphous
- Description ([1]; 2 Months): Pale yellow
- Related substance (%) by HPLC: Impurity-AMPPP ([1]; 2 Months): BQL
- Related substance (%) by HPLC: Impurity-MPMBA ([1]; 2 Months): BQL
- Related substance (%) by HPLC: Impurity-Methyl Ester analouge ([1]; 2 Months): BQL
- Related substance (%) by HPLC: Impurity-NMPPP ([1]; 2 Months): BQL
- Related substance (%) by HPLC: Single largest unknown Imp ([1]; 2 Months): 0.03%
- Related substance (%) by HPLC: Total Impurities ([1]; 2 Months): 0.04%
- Water (%) ([1]; 2 Months): 0.64%
- X-Ray Diffraction ([1]; 2 Months): Amorphous
- Description ([1]; 3 Months): Pale yellow
- Related substance (%) by HPLC: Impurity-AMPPP ([1]; 3 Months): BQL
- Related substance (%) by HPLC: Impurity-MPMBA ([1]; 3 Months): BQL
- Related substance (%) by HPLC: Impurity-Methyl Ester analouge ([1]; 3 Months): BQL
- Related substance (%) by HPLC: Impurity-NMPPP ([1]; 3 Months): BQL
- Related substance (%) by HPLC: Single largest unknown Imp ([1]; 3 Months): 0.03%
- Related substance (%) by HPLC: Total Impurities ([1]; 3 Months): 0.05%
- Water (%) ([1]; 3 Months): 0.65%
- X-Ray Diffraction ([1]; 3 Months): Amorphous
- Description ([1]; 6 Months): Pale yellow
- Related substance (%) by HPLC: Impurity-AMPPP ([1]; 6 Months): BQL
- Related substance (%) by HPLC: Impurity-MPMBA ([1]; 6 Months): BQL
- Related substance (%) by HPLC: Impurity-Methyl Ester analouge ([1]; 6 Months): BQL
- Related substance (%) by HPLC: Impurity-NMPPP ([1]; 6 Months): BQL
- Related substance (%) by HPLC: Single largest unknown Imp ([1]; 6 Months): 0.03%
- Related substance (%) by HPLC: Total Impurities ([1]; 6 Months): 0.06%
- Water (%) ([1]; 6 Months): 0.69%
- X-Ray Diffraction ([1]; 6 Months): Amorphous
- Description ([2]; 1 Month): Pale yellow
- Related substance (%) by HPLC: Impurity-AMPPP ([2]; 1 Month): BQL
- Related substance (%) by HPLC: Impurity-MPMBA ([2]; 1 Month): BQL
- Related substance (%) by HPLC: Impurity-Methyl Ester analouge ([2]; 1 Month): BQL
- Related substance (%) by HPLC: Impurity-NMPPP ([2]; 1 Month): BQL
- Related substance (%) by HPLC: Single largest unknown Imp ([2]; 1 Month): 0.03%
- Related substance (%) by HPLC: Total Impurities ([2]; 1 Month): 0.04%
- Water (%) ([2]; 1 Month): 0.88%
- X-Ray Diffraction ([2]; 1 Month): Amorphous
- Description ([2]; 2 Month): Pale yellow
- Related substance (%) by HPLC: Impurity-AMPPP ([2]; 2 Month): BQL
- Related substance (%) by HPLC: Impurity-MPMBA ([2]; 2 Month): BQL
- Related substance (%) by HPLC: Impurity-Methyl Ester analouge ([2]; 2 Month): BQL
- Related substance (%) by HPLC: Impurity-NMPPP ([2]; 2 Month): BQL
- Related substance (%) by HPLC: Single largest unknown Imp ([2]; 2 Month): 0.03%
- Related substance (%) by HPLC: Total Impurities ([2]; 2 Month): 0.05%
- Water (%) ([2]; 2 Month): 0.89%
- X-Ray Diffraction ([2]; 2 Month): Amorphous
- Description ([2]; 3 Month): Pale yellow
- Related substance (%) by HPLC: Impurity-AMPPP ([2]; 3 Month): BQL
- Related substance (%) by HPLC: Impurity-MPMBA ([2]; 3 Month): BQL
- Related substance (%) by HPLC: Impurity-Methyl Ester analouge ([2]; 3 Month): BQL
- Related substance (%) by HPLC: Impurity-NMPPP ([2]; 3 Month): BQL
- Related substance (%) by HPLC: Single largest unknown Imp ([2]; 3 Month): 0.03%
- Related substance (%) by HPLC: Total Impurities ([2]; 3 Month): 0.07%
- Water (%) ([2]; 3 Month): 0.79%
- X-Ray Diffraction ([2]; 3 Month): Amorphous
- Description ([2]; 6 Month): Pale yellow
- Related substance (%) by HPLC: Impurity-AMPPP ([2]; 6 Month): BQL
- Related substance (%) by HPLC: Impurity-MPMBA ([2]; 6 Month): BQL
- Related substance (%) by HPLC: Impurity-Methyl Ester analouge ([2]; 6 Month): BQL
- Related substance (%) by HPLC: Impurity-NMPPP ([2]; 6 Month): BQL
- Related substance (%) by HPLC: Single largest unknown Imp ([2]; 6 Month): 0.03%
- Related substance (%) by HPLC: Total Impurities ([2]; 6 Month): 0.07%
- Water (%) ([2]; 6 Month): 0.95%
- X-Ray Diffraction ([2]; 6 Month): Amorphous
- hygroscopicity [3]: very hygroscopic
SMILES: Cc1ccc(NC(=O)c2ccc(CN3CCN(C)CC3)cc2)cc1Nc1nccc(-c2cccnc2)n1 [amorphous imatinib mesylate, Imatinib mesylate]
